Like-named read-outs stand apart in the source and are kept apart here.
Experiments:
Assay type in all cases: binding
[1] = system: human Aβ-amyloid plaques; assay: 3H-PIB competition autoradiography on postmortem AD brain sections; details: 10 μM competitor; postmortem AD human brain slices; preliminary studies
Protocol: ^3H-PIB Binding: Human hippocampus sections (7 μm thick) were preincubated in 10% alcohol PBS buffer for 10 minutes. The brain sections were placed in a glass chamber and incubated with [^3H]-PIB (2 μCi/cc) in 10% alcohol PBS buffer, pH 7.4 at 37° C. for 1 hr. The slices were then washed with cold 10% alcohol PBS buffer (2×3 mins), cold deionized water 1 min, respectively. The brain sections were air dried, exposed overnight on a phosphor film, and then placed on the Phosphor Autoradiographic imaging System/Cyclone Storage Phosphor System (Packard Instruments Co). Regions of interest (ROIs) were drawn on the slices and the extent of binding of ^3H-PIB was measured with DLU/mm2 using the OptiQuant acquisition and analysis program (Packard Instruments Co).
Since FDGBTA is an analog of PIB, which is known to bind to human Aβ-amyloid plaques, the inventors tested competition of both PIB and FDGBTA with postmortem human brain Aβ-amyloid sites labeled with ^3H-PIB as is illustrated in Panel A of FIG. 5, with the corresponding photomicrographs in Panel B of FIG. 5.

[2] = system: Aβ-Amyloid plaques; assay: Human brain homogenate assay, displacement of 3H-PIB; details: 3H-PIB displacement curve; rFDGBTA 10^−11 to 10^−4 M; PBS buffer, 10% alcohol, pH 7.4
Protocol: rFDGBTA: Reductive amination was carried out at room temperature using an anhydrous solution of molecular sieves, methanol and acetic acid. The yield for the reduced rFDGBTA was 94%. Human brain homogenate assay of rFDGBTA for Aβ-Amyloid plaques was investigated. The homogenate was suspended in different concentrations of rFDGBTA (10^−11 to 10^−4M) in the assay buffer (PBS buffer, 10% alcohol, pH 7.4). Nonspecific binding was determined by including […]. Total assay volume was 0.25 ml.

[3] = system: postmortem human brain Aβ-amyloid sites
Excerpt: (§1) The brain sections were air dried, exposed overnight on a phosphor film, and then placed on the Phosphor Autoradiographic Imaging System/Cyclone Storage Phosphor System (Packard Instruments Co).
as §1

In the case of `OCC1OC(Nc2ccc(-c3nc4ccc(O)cc4s3)cc2)C(F)C(O)C1O` (centres unmarked) [FDGBTA], the “reduction of 3H-PIB binding in the grey matter areas” value [1] is reported as 80%.

For `OCC(O)C(O)C(O)C(F)CNc1ccc(-c2nc3ccc(O)cc3s2)cc1` (centres unmarked) [rFDGBTA], the “binding compared to PIB (times weaker)” value [2] was roughly 100 times.

`[11CH3]Nc1ccc(-c2nc3ccc(O)cc3s2)cc1` [11C-PIB] was tested, and the “binding to AD brain grey matter / Aβ-amyloid plaques (in words)” value ([3]; postmortem AD human brain sections, autoradiography) was “significant binding” and the “ratio of binding, AD brain versus control subjects (grey matter)” value ([3]; postmortem human hippocampus sections, autoradiography) was 6.

2-^18F-Fluorodeoxyglucose [18F-FDG] was tested, and the “binding to AD brain grey matter / Aβ-amyloid plaques (in words)” value [3] was “did not exhibit any binding”.
